Data as given in patent EP0166969A2, “Haemostyptic” (priority 1984, dated 1986).
“Also recorded” adds a separate entry of the source.

Key:
[1] = system: Schweineleber; assay: Comparative haemostyptic efficacy of components, mixtures and esters in rat models and pig liver; type: in vivo, Ratten; details: qualitative
From the text: Unter einem Hämostypticum versteht man Mittel zur Blutstillung, die sowohl die Blutungszeit als auch den Blutverlust bei mechanischen Verletzungen herabsetzen. Die Blutgerinnung ist ein in den letzten Jahren intensiv untersuchter komplexer Vorgang, der sich in verschiedenster Weise beeinflussen läßt. Die Blutstillung und der Blutverlust hängen wiederum in erster Linie vom Umfang und der Geschwindigkeit der Blutgerinnung ab, jedoch spielen hier auch noch weitere Faktoren mit hinein, die bisher noch nicht ausreichend untersucht und geklärt werden konnten. Eine besondere Schwierigkeit bei der Untersuchung von Hämostyptica ist die Erarbeitung von zuverlässigen und reproduzierbaren Versuchsbedingungen am Menschen und am Tier. Eine umfassende Zusammenstellung der bisher bekannten Methoden sowie die Beschreibung einer verbesserten Methode an der Ratte wird beschrieben in der Dissertation von Ennen 1981, am Institut für Pharmakologie, Toxikologie und Pharmazie der Tierärtzlichen Hochschule Hannover unter Leitung von Prof. Dr. K. Kaemmerer (Methodenbeitrag zur Bestimmung von Blutungszeit und Blutverlust bei Leberparenchymblutungen kleiner Versuchstiere). Im Rahmen dieser Untersuchungen wurden auch verschiedene bekannte Hämostasesysteme vergleichend untersucht. Zu den untersuchten Produkten gehörte auch das Hämostypticum Revici, welches von der Anmelderin seit Jahren vertrieben wird. […] Das Hämostypticum Revici enthält neben geringen Mengen von Zitronensäure, Wasserstoffperoxid und n-Butanol. […] Dabei dienten als Modelle in erster Linie die bereits von Ennen entwickelten Tiermodelle der Ratten sowie ähnliche Versuche an der Schweineleber. Die Untersuchungen wurden zusätzlich ausgedehnt auf mögliche Metaboliten und Zersetzungsprodukte der Zitronensäure, nämlich Cis-Aconitsäure, Acetondicarbonsäure und Itakonsäure.

[2] = system: Rattenleber; assay: Bleeding time and blood loss in rats according to Ennen (1981), liver parenchymal bleeding; type: in vivo, Ratten; details: tested oral and IV, standard solutions suspended in 0,9% saline, route of the values not stated
From the text: Unter einem Hämostypticum versteht man Mittel zur Blutstillung, die sowohl die Blutungszeit als auch den Blutverlust bei mechanischen Verletzungen herabsetzen. Die Blutgerinnung ist ein in den letzten Jahren intensiv untersuchter komplexer Vorgang, der sich in verschiedenster Weise beeinflussen läßt. Die Blutstillung und der Blutverlust hängen wiederum in erster Linie vom Umfang und der Geschwindigkeit der Blutgerinnung ab, jedoch spielen hier auch noch weitere Faktoren mit hinein, die bisher noch nicht ausreichend untersucht und geklärt werden konnten. Eine besondere Schwierigkeit bei der Untersuchung von Hämostyptica ist die Erarbeitung von zuverlässigen und reproduzierbaren Versuchsbedingungen am Menschen und am Tier. Eine umfassende Zusammenstellung der bisher bekannten Methoden sowie die Beschreibung einer verbesserten Methode an der Ratte wird beschrieben in der Dissertation von Ennen 1981, am Institut für Pharmakologie, Toxikologie und Pharmazie der Tierärtzlichen Hochschule Hannover unter Leitung von Prof. Dr. K. Kaemmerer (Methodenbeitrag zur Bestimmung von Blutungszeit und Blutverlust bei Leberparenchymblutungen kleiner Versuchstiere). Im Rahmen dieser Untersuchungen wurden auch verschiedene bekannte Hämostasesysteme vergleichend untersucht. Zu den untersuchten Produkten gehörte auch das Hämostypticum Revici, welches von der Anmelderin seit Jahren vertrieben wird. […] Das Hämostypticum Revici enthält neben geringen Mengen von Zitronensäure, Wasserstoffperoxid und n-Butanol. Da bei der Anwendung des Hämostypticums Revici immer wieder schwankende und nicht immer reproduzierbare Ergebnisse beobachtet wurden, wurden eingehende Untersuchungen über die Wirksamkeit aller drei Komponenten und Gemische derselben auf ihre Wirksamkeit hin untersucht. Dabei dienten als Modelle in erster Linie die bereits von Ennen entwickelten Tiermodelle der Ratten sowie ähnliche Versuche an der Schweineleber. Die Untersuchungen wurden zusätzlich ausgedehnt auf mögliche Metaboliten und Zersetzungsprodukte der Zitronensäure, nämlich Cis-Aconitsäure, Acetondicarbonsäure und Itakonsäure.
Die Wirksamkeit der Substanzen wurde sowohl oral als auch IV getestet mit Standardlösungen suspendiert in 0,9%-iger Kochsalzlösung bei Ratten nach Ennen (1981). Gemessen wurden Blutungszeit und Blutverlust in % der Abnahme. Tributylcitrat ergab eine Abnahme der Blutungszeit von 27% und eine Abnahme des Blutverlustes von 44%. Die entsprechenden Werte für Trihexylcitrat lagen bei 20 bzw. 24%. Die Werte für Aconit-tributylester bei 22 bzw. 16% und für Tricarballylsäure-tributylester bei 29 bzw. 8%.

[3] = Toxicity of the new esters (test not described); details: qualitative
[4] = system: Schweine; assay: Pig experiments: circulatory effect; type: in vivo; details: pigs; amount of n-Butanol present in Hämostypticum Revici, given alone
From the text: Bei den Schweineversuchen hat sich beispielsweise gezeigt, daß die im Hämostypticum Revici vorhandene Menge n-Butanol für sich allein schon zu Kreislaufdepressionen führt. […] Die Wirksamkeit kann daher nicht dadurch erklärt werden, daß das TBC im Körper zu Zitronensäure und n-Butanol gespalten wird.

[5] = system: Ratte; details: rat; Merck Index, 10th ed., no. 1513; cited from earlier work
[6] = Acute toxicity (LD50, oral tolerance) in the rat; type: in vivo; details: in vivo, applicant's own experiments
Description: (§1) Hierbei ist zu beachten, daß bei der Ratte als maximale Volumenbelastung 20 ml/kg gelten.

[7] = system: Ratte; assay: Acute toxicity (LD50, oral tolerance) in the rat; type: in vivo
Description: as §1

[8] = system: Ratte; details: rat, in vivo, iv
Description: as §1

Compound	hämostyptische Wirksamkeit [1]	Abnahme der Blutungszeit [2]	Abnahme des Blutverlustes [2]	Toxizität [3]	other results
C=C(CC(=O)O)C(=O)O [Itakonsäure]	praktisch wirkungslos	–	–	–	–
CCCCOC(=O)C=C(CC(=O)OCCCC)C(=O)OCCCC [Aconit-tributylester]	durchaus interessante und für die Praxis brauchbare Wirkung	22%	16%	niedriger Toxizität	–
CCCCO [n-Butanol]	eine gewisse hämostyptische Wirksamkeit; also recorded: einen gewissen Effekt	–	–	–	Kreislaufwirkung [4]: Kreislaufdepressionen; LD50 [5]: 4,36 g/kg
O=C(O)CC(=O)CC(=O)O [Acetondicarbonsäure]	praktisch wirkungslos	–	–	–	–
O=C(O)CC(O)(CC(=O)O)C(=O)O [Zitronensäure]	praktisch wirkungslos	–	–	–	–
CCCCOC(=O)CC(O)(CC(=O)OCCCC)C(=O)OCCCC [TBC, Tri-n-butylcitrat]	–	27%	44%	–	LD50 [6]: 20800 mg/kg; akute oder klinische manifeste Veränderungen ([7]; oral 10 ml/kg (printed as 10,4 mg/kg)): keinerlei akute oder klinische manifeste Veränderungen; akute oder klinische manifeste Veränderungen ([7]; oral 20 ml/kg (printed as 20,8 mg/kg)): keinerlei akute oder klinische manifeste Veränderungen; spontaner Exitus nach Infusion [8]: 19,4 ml/kg
Wasserstoffperoxid [H202]	einen gewissen Effekt	–	–	–	–
CCCCOC(=O)CC(CC(=O)OCCCC)C(=O)OCCCC [Tricarballylsäure-tributylester]	durchaus interessante und für die Praxis brauchbare Wirkung	29%	8%	niedriger Toxizität	–
CCCCCCOC(=O)CC(O)(CC(=O)OCCCCCC)C(=O)OCCCCCC [Trihexylcitrat]	–	20%	24%	niedriger Toxizität	–
O=C(O)/C=C(/CC(=O)O)C(=O)O [Cis-Aconitsäure]	praktisch wirkungslos	–	–	–	–
